What follows are molecules tested on phosphorylation of Serine 473 in Akt (assay: In Vitro Phospho-Ser473 Akt Assay in MDA-MB-468 cells). Conditions: Homo sapiens, MDA-MB-468, read-out: IC50 values against mTOR, phospho-Ser473 Akt assay, MDA-MB-468 cells.
Format: cell-based

SMILES | IC50 [nM]
COCCOc1nc(N2CCOC[C@@H]2C)c2ccc(-c3ccc(OC)c(CO)c3)nc2n1 [Example 18cx] | < 300
COc1ccc(-c2ccc3c(N4CCOC[C@@H]4C)nc(N4CCCCCC4)nc3n2)cc1CO [Example 18d] | < 100
CNCCOc1nc(N2CCOC[C@@H]2C)c2ccc(-c3ccc(OC)c(CO)c3)nc2n1 [Example 18db] | < 100
COc1ccc(-c2ccc3c(N4CCOC[C@@H]4C)nc(N4CCCCO4)nc3n2)cc1CO [Example 18dd] | < 300
C[C@@H]1CN(c2nc(N3CCOC[C@@H]3C)c3ccc(-c4ccc(Cl)cc4)nc3n2)C[C@H](C)O1 [Example 18dh] | < 300
C[C@H]1COCCN1c1nc(N2CCOCC2)nc2nc(-c3ccc(Cl)cc3)ccc12 [Example 18di] | < 300
COc1ccc(-c2ccc3c(N4CCOC[C@@H]4C)nc(N4CCCCC(N)C4)nc3n2)cc1CO (stereo partly shown) [Example 18e] | < 300
COc1ccc(-c2ccc3c(N4CCOC[C@@H]4C)nc(N4CCC(c5cccc(O)c5)CC4)nc3n2)cc1CO [Example 18f] | < 100
COc1ccc(-c2ccc3c(N4CCOC[C@@H]4C)nc(N4CCC(CCO)CC4)nc3n2)cc1CO [Example 18g] | < 100
COc1ccc(-c2ccc3c(N4CCOC[C@@H]4C)nc(N4CCCC(C(F)(F)F)C4)nc3n2)cc1CO (stereo partly shown) [Example 18h] | < 300
COc1ccc(-c2ccc3c(N4CCOC[C@@H]4C)nc(N4CCCC(C)C4)nc3n2)cc1CO (stereo partly shown) [Example 18i] | < 100
COc1ccc(-c2ccc3c(N4CCOC[C@@H]4C)nc(N4CCCC(O)C4)nc3n2)cc1CO (stereo partly shown) [Example 18k] | < 100
COc1ccc(-c2ccc3c(N4CCOC[C@@H]4C)nc(Nc4ccccc4)nc3n2)cc1CO [Example 18m] | < 100
COc1ccc(-c2ccc3c(N4CCOC[C@@H]4C)nc(Nc4ccccn4)nc3n2)cc1CO [Example 18p] | < 300
COc1ccc(-c2ccc3c(N4CCOC[C@@H]4C)nc(N4CCCC4)nc3n2)cc1CO [Example 18q] | < 100
CCOC(=O)C1CCCN(c2nc(N3CCOC[C@@H]3C)c3ccc(-c4ccc(OC)c(CO)c4)nc3n2)C1 (stereo partly shown) [Example 18r] | < 100
COc1ccc(-c2ccc3c(N4CCOC[C@@H]4C)nc(N4CCC(CN)CC4)nc3n2)cc1CO [Example 18s] | < 100
COc1ccc(-c2ccc3c(N4CCOC[C@@H]4C)nc(N4CCC(C)CC4)nc3n2)cc1CO [Example 18t] | < 100
CCOC(=O)C1CCN(c2nc(N3CCOC[C@@H]3C)c3ccc(-c4ccc(OC)c(CO)c4)nc3n2)CC1 [Example 18u] | < 100
COc1ccc(-c2ccc3c(N4CCOC[C@@H]4C)nc(N4CCC(C(N)=O)CC4)nc3n2)cc1CO [Example 18v] | < 100
COc1ccc(C(=O)C2CCN(c3nc(N4CCOC[C@@H]4C)c4ccc(-c5ccc(OC)c(CO)c5)nc4n3)CC2)cc1 [Example 18w] | < 300
COc1ccc(-c2ccc3c(N4CCOC[C@@H]4C)nc(N4CCC(CO)CC4)nc3n2)cc1CO [Example 18x] | < 100
COc1ccc(-c2ccc3c(N4CCOC[C@@H]4C)nc(N4CCCC(CO)C4)nc3n2)cc1CO (stereo partly shown) [Example 18y] | < 100
COc1ccc(-c2ccc3c(N4CCOC[C@@H]4C)nc(-c4cccc(C=O)c4)nc3n2)cc1CO [Example 19b] | < 300
COc1ccc(-c2ccc3c(N4CCOC[C@@H]4C)nc(-c4cccc(CO)c4)nc3n2)cc1CO [Example 19c] | < 300
COc1ccc(-c2ccc3c(N4CCOC[C@@H]4C)nc(-c4cccnc4)nc3n2)cc1CO [Example 19j] | < 100
COc1ccc(-c2ccc3c(N4CCOC[C@@H]4C)nc(-c4cccc(C(N)=O)c4)nc3n2)cc1CO [Example 19k] | < 300
COc1ccc(-c2nc(N3CCOC[C@@H]3C)c3ccc(-c4cccc(CO)c4)nc3n2)cn1 [Example 19p] | < 100

Same assay, conditions: Homo sapiens, MDA-MB-468, read-out: IC50 values against mTOR, phospho-Ser473 Akt assay, MDA-MB-468 cells, upper bound

SMILES | IC50 [nM]
COc1ccc(-c2ccc3c(N4CCOC[C@@H]4C)nc(NC(C)CN(C)C)nc3n2)cc1CO (stereo partly shown) [Example 18ct] | < 1000
CCOc1nc(N2CCOC[C@@H]2C)c2ccc(-c3ccc(OC)c(CO)c3)nc2n1 [Example 18cv] | < 1000
C[C@H]1CCCCN1c1nc(N2CCOC[C@@H]2C)c2ccc(-c3ccc(Cl)cc3)nc2n1 [Example 18de] | < 1000
C[C@@H]1CCCCN1c1nc(N2CCOC[C@@H]2C)c2ccc(-c3ccc(Cl)cc3)nc2n1 [Example 18dg] | < 1000
C[C@H]1COCCN1c1nc(N2CCC(C(N)=O)CC2)nc2nc(-c3ccc(Cl)cc3)ccc12 [Example 18dj] | < 1000
COc1ccc(-c2ccc3c(N4CCOC[C@@H]4C)nc(N4CCCC(c5ccccc5)C4)nc3n2)cc1CO (stereo partly shown) [Example 18j] | < 1000
COc1ccc(-c2ccc3c(N4CCOC[C@@H]4C)nc(Nc4ccncn4)nc3n2)cc1CO [Example 18n] | < 1000
COc1ccc(-c2ccc3c(N4CCOC[C@@H]4C)nc(Nc4cccnc4)nc3n2)cc1CO [Example 18o] | < 1000
COc1ccc(-c2ccc3c(N4CCOC[C@@H]4C)nc(N4CCC(N5CCCCC5)CC4)nc3n2)cc1CO [Example 18z] | < 1000
COc1ccc(-c2ccc3c(N4CCOC[C@@H]4C)nc(-c4cccc(CN)c4)nc3n2)cc1CO [Example 19e] | < 1000
COC(=O)c1cccc(-c2nc(N3CCOC[C@@H]3C)c3ccc(-c4ccc(OC)c(CO)c4)nc3n2)c1 [Example 19h] | < 1000
COc1ccc(-c2ccc3c(N4CCOC[C@@H]4C)nc(-c4cccc([N+](=O)[O-])c4)nc3n2)cc1CO [Example 19i] | < 1000
COCc1cccc(-c2nc(N3CCOC[C@@H]3C)c3ccc(-c4ccc(OC)c(CO)c4)nc3n2)c1 [Example 19l] | < 1000
COc1ccc(-c2ccc3c(N4CCOC[C@@H]4C)nc(-c4cccc(C(F)(F)F)c4)nc3n2)cc1CO [Example 19m] | < 1000
COc1ccc(-c2ccc3c(N4CCOC[C@@H]4C)nc(-c4cccc(C)c4)nc3n2)cc1CO [Example 19n] | < 1000
COc1cccc(-c2nc(N3CCOC[C@@H]3C)c3ccc(-c4ccc(OC)c(CO)c4)nc3n2)c1 [Example 19o] | < 1000
C[C@H]1COCCN1c1nc(-c2ccncc2)nc2nc(-c3cccc(CO)c3)ccc12 [Example 19q] | < 1000
COc1cncc(-c2nc(N3CCOC[C@@H]3C)c3ccc(-c4cccc(CO)c4)nc3n2)c1 [Example 19s] | < 1000
C[C@H]1COCCN1c1nc(-c2cccnc2F)nc2nc(-c3cccc(CO)c3)ccc12 [Example 19u] | < 1000
C[C@H]1COCCN1c1nc(-c2cnn(C)c2)nc2nc(-c3cccc(CO)c3)ccc12 [Example 19v] | < 1000
Cc1nn(C)c(C)c1-c1nc(N2CCOC[C@@H]2C)c2ccc(-c3cccc(CO)c3)nc2n1 [Example 19w] | < 1000
